Experimental findings from ChEMBL document CHEMBL1151414, “Plant anticancer agents. XXIII. 6 alpha-senecioyloxychaparrin, a new antileukemic quassinoid from Simaba multiflora” (1983) are described below.

Values after ≈ are worked out from the molar mass of the structure shown.

Format in all cases: functional
In one test the test system is KB. Put plainly: Cytotoxicity against human KB cells by NCI method. The following applies: read-out: ED50 (the source's name).
The test system of test [1] is P388. Put plainly: In vivo antitumor activity against mouse P388 cells at 3.0 mg/kg relative to control.
The test system of test [2] is P388. Put plainly: In vivo antitumor activity against mouse P388 cells at 1.5 mg/kg relative to control.
The test system of test [3] is P388. Put plainly: In vivo antitumor activity against mouse P388 cells at 0.75 mg/kg relative to control.
The test system of test [4] is P388. Put plainly: In vivo antitumor activity against mouse P388 cells at 0.38 mg/kg relative to control.
In test [5] the test system is P388. Briefly: In vivo antitumor activity against mouse P388 cells at 2.5 mg/kg relative to control.
Test [6] deals with P388. Put plainly: In vivo antitumor activity against mouse P388 cells at 1.25 mg/kg relative to control.
In test [7] the test system is P388. Put plainly: In vivo antitumor activity against mouse P388 cells at 0.63 mg/kg relative to control.
Test [8] deals with P388. Briefly: In vivo antitumor activity against mouse P388 cells at 0.31 mg/kg relative to control.

Regarding `CC(C)=CC(=O)O[C@@H]1[C@H]2C(C)=C[C@H](O)[C@H](O)[C@]2(C)[C@H]2[C@]3(O)OC[C@@]24[C@@H]1OC(=O)C[C@H]4[C@@H](C)[C@H]3O`, the EC50 in the test with KB was determined as 3 ng/mL (≈ 6.27 nM). Moreover, the T/C (commonly the result in the treated group divided by that in the control group, in per cent) in the test with P388 [1] was found to be 133%; with P388 [2] it was 133%; with P388 [3], 160%; in the test with P388 [4], 142%.

In the case of `CC(C)=CC(=O)O[C@@H]1[C@H]2C(C)=CC(=O)[C@H](O)[C@]2(C)[C@H]2[C@]3(O)OC[C@@]24[C@@H]1OC(=O)C[C@H]4[C@@H](C)[C@H]3O`, the EC50 in the test on KB was 3 ng/mL (≈ 6.3 nM). For the same compound, the T/C was found to be 136% in the test with P388 [5], 133% in the test on P388 [6], 176% in the test with P388 [7] and 145% with P388 [8].

Consider `CC1=CC(=O)[C@@H](O)[C@]2(C)[C@H]3[C@@]4(O)OC[C@@]35[C@@H](C[C@@H]12)OC(=O)C[C@H]5[C@@H](C)[C@H]4O` [CHAPARRINONE], for which, in the test on KB, the EC50 came to 25 ng/mL (≈ 66.1 nM).
